Series [1] in a line: Solubility of the compound. Type of series: physicochemical.
Series [2] has as its target T1, Aldo-keto reductase family 1 member C1 (Homo sapiens) (UniProt Q04828).
T1 sequence (whole entry): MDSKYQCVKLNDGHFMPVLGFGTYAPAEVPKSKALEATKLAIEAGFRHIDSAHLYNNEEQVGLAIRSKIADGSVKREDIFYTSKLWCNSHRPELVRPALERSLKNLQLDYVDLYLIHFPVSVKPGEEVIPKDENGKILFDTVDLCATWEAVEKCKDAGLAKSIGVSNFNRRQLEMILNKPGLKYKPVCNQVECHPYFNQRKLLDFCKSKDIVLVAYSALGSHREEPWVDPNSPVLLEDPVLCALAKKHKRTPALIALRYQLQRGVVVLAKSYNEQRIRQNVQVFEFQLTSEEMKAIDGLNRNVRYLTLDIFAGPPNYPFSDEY
Kind of series: Inhibition of human recombinant GST-tagged AKR1C1 expressed in Escherichia coli BL21 at 50 uM.

Series [3] has as its target T2, Aldo-keto reductase family 1 member C3 (Homo sapiens) (UniProt P42330).
T2 sequence (whole entry): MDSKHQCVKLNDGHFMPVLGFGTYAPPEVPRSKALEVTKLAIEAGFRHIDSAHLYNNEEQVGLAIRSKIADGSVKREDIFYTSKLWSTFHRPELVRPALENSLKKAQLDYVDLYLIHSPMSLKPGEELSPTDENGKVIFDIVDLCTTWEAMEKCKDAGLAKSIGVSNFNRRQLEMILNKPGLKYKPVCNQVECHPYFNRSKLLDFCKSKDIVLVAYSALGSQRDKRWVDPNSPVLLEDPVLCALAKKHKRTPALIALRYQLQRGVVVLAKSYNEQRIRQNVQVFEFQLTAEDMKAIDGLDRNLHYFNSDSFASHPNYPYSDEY
Kind of series: Inhibition of human recombinant GST-tagged AKR1C3 expressed in Escherichia coli BL21 at 50 uM.

Series [4] deals with T2, Aldo-keto reductase family 1 member C3 (Homo sapiens). The series is described as follows: Inhibition of human recombinant GST-tagged AKR1C3 expressed in Escherichia coli BL21 at 100 uM.
Series [5] concerns the target T1, Aldo-keto reductase family 1 member C1 (Homo sapiens). The series is described as follows: Inhibition of human recombinant GST-tagged AKR1C1 expressed in Escherichia coli BL21 at 100 uM.
For series [6], the target named is T3, Aldo-keto reductase family 1 member C3 (Homo sapiens, UniProt P42330).
T3 sequence (P42330 whole entry): T2 sequence (whole entry)
Kind of series: Inhibition of human recombinant GST-tagged AKR1C3 expressed in Escherichia coli BL21.

In series [7] the target is T4, Aldo-keto reductase family 1 member C1 (Homo sapiens, UniProt Q04828).
T4 sequence (Q04828 whole entry): T1 sequence (whole entry)
Kind of series: Inhibition of human recombinant GST-tagged AKR1C1 expressed in Escherichia coli BL21.

Series [8] concerns the target T1, Aldo-keto reductase family 1 member C1 (Homo sapiens). The series is described as follows: Competitive inhibition of human recombinant GST-tagged AKR1C1 expressed in Escherichia coli BL21 at 17.4 uM by Lineweaver-Burke plot analysis.
Series [9] shares this target. The series is described as follows: Competitive inhibition of human recombinant GST-tagged AKR1C1 expressed in Escherichia coli BL21 at 36.2 uM by Lineweaver-Burke plot analysis.
Series [10] has the same target. The series is described as follows: Competitive inhibition of human recombinant GST-tagged AKR1C1 expressed in Escherichia coli BL21 at 72.5 uM by Lineweaver-Burke plot analysis.

A word on the inhibition: it is the relative decrease from the control value, in per cent. One may read the IC50 as the concentration that inhibits the measured activity by half. What is called Ki is a measure of affinity in units of concentration, obtained from inhibition or displacement.

Molecules are shown by their SMILES. Activity calls are given as the source filed them. The rule behind the calls is not given here.

As for `OC1CCCC1(Cc1ccccc1)Cc1ccccc1` (stereo unspecified), in [1], the solubility entry is on record as “Insoluble”. The inhibition came out at 15.9% in [2] and 67.3% in series [3].

As to `O[C@@H]1CCC[C@H]1Nc1ccccc1` (relative stereo), in series [4], the inhibition entry is “inactive”. Also, in series [5], the inhibition is 14.7%.

As for `COC1CCC/C1=C\c1ccc(Cl)cc1` (stereo unspecified), the inhibition in series [4] was 87.4%. Besides, the inhibition in [5] stood at 40.1%. Besides, in [6], the IC50 worked out at 17.8 µM and the Ki came out at 16.2 µM.

Take `O[C@@H]1CCC[C@H]1Cc1ccccc1` (relative stereo): in [4], the inhibition result is “inactive”. Also, the inhibition in series [5] amounted to 13.8%.

Consider `O=C(O)C1CCC(c2ccccc2)C1` (stereo unspecified), for which the inhibition in series [4] came to 52.7%; in [5] it was 55.4%. The results for the IC50 in series [6] and in [7] were 76.6 µM and 98.6 µM, respectively. In addition, the Ki stood at 69.6 µM in series [6] and 48.5 µM in [7].

Take `CCOC1CCC/C1=C\c1ccc(Cl)cc1` (stereo unspecified): the inhibition in [4] was determined as 83.9%; in series [5], 52.9%. The IC50 in series [6] was 22.5 µM; in series [7] it was 62.1 µM. The results for the Ki in [6] and in series [7] were 20.5 µM and 30.5 µM, respectively.

Regarding `Cc1ccc(S(=O)(=O)N[C@@H]2CCC[C@H]2Br)cc1` (relative stereo), the inhibition was determined as 9.2% in [4] and 20.3% in series [5].

On to `Cc1ccc(S(=O)(=O)N2C3CCCC32)cc1` (stereo unspecified), for which the inhibition in [4] worked out at 2.7%; in [5], 2.1%.

Turning to `Cc1ccc(S(=O)(=O)N[C@@H]2CCC[C@H]2C(=O)O)cc1` (relative stereo), the inhibition entry in series [4] was “inactive”. The inhibition in series [5] came out at 26.1%.

For `O[C@H]1CCC[C@H]1Cc1ccccc1` (relative stereo), in series [4], the inhibition result was “inactive”. Besides, in series [5], the inhibition came out at 9.7%.

With `Cc1ccc(S(=O)(=O)N[C@@H]2CCC[C@H]2C#N)cc1` (relative stereo), the inhibition result in series [4] was “inactive”. In addition, the inhibition in series [5] turned out to be 15.9%.

As to `OC1C(Cc2ccccc2)CCC1Cc1ccccc1` (stereo unspecified), the solubility result in series [1] is on record as “Insoluble”. For the same compound, the inhibition in [2] came out at 11.5%; in series [3], 46.6%.

As to `Cc1ccc(S(=O)(=O)N[C@@H]2CCC[C@H]2C(N)=O)cc1` (relative stereo), the inhibition entry in [4] was “inactive”. Besides, in series [5], the inhibition is 12.9%.

Take `O=C1CCC/C1=C\c1ccc(Cl)cc1`: the inhibition in series [4] worked out at 88.8%; in series [5], 77.8%. The outcome in series [8], in series [9] and in series [10] was Active. For the same compound, the IC50 was 36.7 µM in [6] and 35 µM in series [7]. Also, the Ki in series [6] was found to be 33.4 µM; in series [7], 17.2 µM.

Turning to `O=C(O)C1(c2ccccc2)CCCC1`, in [4], the inhibition was determined as 5.8%. Besides, in series [5], the inhibition was found to be 53.5%. For the same compound, in [7], the IC50 was determined as 72.9 µM and the inhibitory constant (Ki) is 35.8 µM.

Values taken from ChEMBL document CHEMBL1158398, “New cyclopentane derivatives as inhibitors of steroid metabolizing enzymes AKR1C1 and AKR1C3” (Eur J Med Chem, 2009).
